Experimental data from article PMC11187260, “Unraveling the interconversion pharmacokinetics and oral bioavailability of the major ginger constituents: [6]-gingerol, [6]-shogaol, and zingerone after single-dose administration in rats” (Frontiers in Pharmacology, 2024).
Like-named read-outs stand apart in the source and are kept apart here.

Key:
Assay type in all cases: in vivo, Female Sprague Dawley rats
[1] = Pharmacokinetics and oral bioavailability after single oral administration (30 mg/kg), plasma LC-MS/MS; conditions: for bioavailability / AUC(0-inf) / AUC(0-t) / Tmax: plasma, 30 mg/kg; for AUC(0-t): read-out: AUC(0-t); for Tmax: median [IQR]; for presence of parent compound in plasma: following oral administration; for time to detectable plasma levels: oral administration of pure compound; for time to reach peak plasma concentration (Cmax): parent compound after oral administration 30 mg/kg
Protocol: (§1) This study is composed of two sections; the first section involves an investigation of the interconversion pharmacokinetics of the pure compounds, and the second focuses on tissue distribution. All rats were transferred to metabolic cages and fasted overnight for at least 10 h. The animals were then randomly divided into four groups (6 rats/group) to receive a single intravenous (i.v.) administration of either 6G, 6S, zingerone, or vehicle via the lateral tail vein at a dosage of 3 mg/kg. After a 7-week washout period, the rats received 30 mg/kg of the same test compounds through a single oral (p.o.) administration. Following each administration, blood samples (300 µL) were collected in heparinized tubes from the lateral tail vein (while rats were under anesthesia with isoflurane) at specified time points: 0.083, 0.25, 0.5, 1, 1.5, 2, 3, 4, 6, 8, and 24 h after administration. An additional 1 mL of blood sample was collected from each rat at pre-dose (0 h) and post-dose (24 h) for clinical laboratory testing and safety evaluation. All heparinized blood samples were initially centrifuged at 5,000 × g, 4 °C, for 10 min. Subsequently, the plasma was carefully transferred to a cryotube as an aliquot sample and then stored at −40 °C until analysis. Urine and feces were collected during the intervals of 0–24 h and 24–48 h post-dosing, and their weights and volumes were documented. All collected urine and feces samples were stored at −40 °C until analysis.
Plasma samples were processed through protein precipitation. In brief, 50 µL of plasma was mixed with 200 µL of methanol containing 50 ng/mL of IS (dihydrocapsaicin). The mixtures were vortexed and centrifuged at 14,000 × g at 4 °C for 10 min. The supernatant was filtered through a […] PVDF membrane (Chrome Tech, MN, USA) before analysis.
(§2) Investigation of glucuronide conjugations followed a previously published method with some modification ([Wang et al., 2017]; [Songvut et al., 2023]). A 50 μL aliquot of plasma, urine, or feces sample was incubated at 37 °C for a minimum of 30 min with 50 μL of β-glucuronidase (3,000 U/mL) in a sodium phosphate buffer (pH 6.8). For sample extraction, 150 μL of methanol containing 50 μg/L of IS was pipetted into the pre-incubated samples. Subsequently, the mixtures were vortexed for 10 min and then centrifuged at 14,000 × g at 4 °C for 10 min. The supernatants were filtered through a […] PVDF membrane (Chrome Tech, MN, United States) and then analyzed using the validated LC-MS/MS method.
Quantitative analysis was conducted using liquid chromatography-tandem mass spectrometry (LC-MS/MS) with a Nexera X2 LCMS-8060NX instrument (Shimadzu, Japan). The instrument included a CBM-40lite system controller, CTO-40C column oven, SIL-40C XR autosampler, LC-40D XR solvent pump unit, FCV-DGU-403 degasser, and 20AH2 switching valve. The LC-MS/MS system was operated with a binary pump and equipped with a triple quadrupole mass spectrometer.
Pharmacokinetic parameters were assessed using PK Solutions software (version 2.0) with non-compartmental analysis. The AUC was calculated using the Linear-Log Trapezoidal Method. The maximum plasma concentration (Cmax) and time to reach maximum plasma concentration (Tmax) were taken directly from the graph.
(§3) Plasma concentration-time profiles were plotted using GraphPad Prism 9.3.0 (GraphPad Software, USA). The absolute oral bioavailability was calculated as follows: F = (AUC p.o./dose p.o.)/(AUC i.v./dose i.v.). The percentage recovery of each administered compound was calculated as the total amount of the drug found in urine or feces divided by the administered dose. The tissue-to-plasma concentration ratios (K p) were calculated by dividing the concentration in the tissue by the corresponding plasma concentration at the respective sampling time point.

[2] = Safety evaluation: physical appearance and blood chemistry after single i.v. or p.o. dose; conditions: for ALP / ALT / AST / BUN / Creatinine: post-dose (24 h), mean ± SD n=6; for Physical appearance: post-dose
Protocol: as §1
Plasma samples were collected at baseline (T0) and T24 h for the determination of blood chemistry, including levels of blood urea nitrogen (BUN), creatinine, aspartate transaminase (AST), alanine transaminase (ALT), and alkaline phosphatase (ALP). The analyses were conducted by the Exclusive Veterinary Professional Laboratory Center (Bangkok, Thailand). The creatinine level was determined using an enzymatic oxidase assay, while AST and ALT levels were determined using the procedure of the International Federation of Clinical Chemistry (IFCC) without pyridoxal phosphate activation.

[3] = Interconversion clearance between 6G and 6S after intravenous administration; conditions: single i.v. 3 mg/kg
Protocol: The interconversion between 6G and 6S was determined using previously published methods ([Ebling and Jusko, 1986]; [Prueksaritanont et al., 2005]). The clearance of 6G biotransformed into 6S was calculated as CL12, while the reverse clearance (6S → 6G) was calculated as CL21. The irreversible elimination clearances of 6G and 6S were calculated as CL10 and CL20, respectively. The following equations were used in accordance with the notation provided in Supplementary Table S3. CL12=Dose^shogaol […] CL21=Dose^gingerol […] CL10=Dose^gingerol x AUCshogaolshogaol- Dose^shogaol […] CL20=Dose^shogaol […]- Dose^gingerol […]

[4] = Percent recovery in urine and feces after intravenous or oral administration; conditions: for parent compound recovered in urine: during 24–48 h; for dose excreted: female, Sprague Dawley, rat, % of administered dose; for unchanged form in fecal excretion: within 48 h after intravenous or oral administration
Protocol: as §1
Urine samples were centrifuged, and 50 µL of urine was extracted with 200 µL of 100% methanol. The mixture was vortexed for 10 min and subsequently centrifuged at 14,000 × g at 4 °C for 10 min. Feces and organs were weighed and homogenized with methanol (50:50% w/v). The supernatants of the extracted urine, feces, and organs were also filtered through a […] PVDF membrane (Chrome Tech, MN, USA) before analysis.
as §2, §3

[5] = female, Sprague-Dawley, rat, po, p.o. 30 mg/kg vs i.v. 3 mg/kg of the pure compound, mean ± SD n=6, read-out: %Oral bioavailability
[6] = female, Sprague-Dawley, rat, po, p.o. 30 mg/kg vs i.v. 3 mg/kg of the pure compound, range among rats, read-out: %Oral bioavailability (range)
[7] = female, Sprague-Dawley, rat, po, p.o. 30 mg/kg vs i.v. 3 mg/kg, pure compounds, read-out: absolute oral bioavailability (upper bound)
[8] = female, Sprague-Dawley, rat, po, plasma analyte after [6]-gingerol p.o. 30 mg/kg, mean ± SD n=6
[9] = female, Sprague-Dawley, rat, po, plasma analyte after [6]-gingerol p.o. 30 mg/kg
[10] = feces, iv, 3 mg/kg, intravenous administration 3 mg/kg of parent compound, read-out: % Recovery excretion, feces T 0–24 h
[11] = feces, iv, 3 mg/kg, intravenous administration 3 mg/kg of parent compound, read-out: % Recovery excretion, feces T 24–48 h
[12] = feces, po, 30 mg/kg, oral administration 30 mg/kg of parent compound, read-out: % Recovery excretion, feces T 0–24 h
[13] = feces, po, 30 mg/kg, oral administration 30 mg/kg of parent compound, read-out: % Recovery excretion, feces T 24–48 h
[14] = urine, iv, 3 mg/kg, intravenous administration 3 mg/kg of parent compound, read-out: % Recovery excretion, urine T 0–24 h
[15] = urine, iv, 3 mg/kg, intravenous administration 3 mg/kg of parent compound, read-out: % Recovery excretion, urine T 24–48 h
[16] = urine, po, 30 mg/kg, oral administration 30 mg/kg of parent compound, read-out: % Recovery excretion, urine T 0–24 h
[17] = urine, po, 30 mg/kg, oral administration 30 mg/kg of parent compound, read-out: % Recovery excretion, urine T 24–48 h
[18] = female, Sprague-Dawley, rat, po, plasma analyte after zingerone p.o. 30 mg/kg, mean ± SD n=6

Structure (SMILES)	bioavailability [1, 5] [%]	bioavailability [1, 6] [%]	bioavailability [1, 7] [%]	AUC(0-inf) [1, 8] [ng·h/mL]	AUC(0-t) [1, 8] [ng·h/mL]	Tmax [1, 9] [min]	presence of parent compound in plasma [1]	time to detectable plasma levels [1] [min]	time to reach peak plasma concentration (Cmax) [1] [min]	ALP ([2]; i.v. 3 mg/kg) [U/L]	ALT ([2]; i.v. 3 mg/kg) [U/L]	AST ([2]; i.v. 3 mg/kg) [U/L]	BUN ([2]; i.v. 3 mg/kg) [mg/dL]	Creatinine ([2]; i.v. 3 mg/kg) [mg/dL]	ALP ([2]; p.o. 30 mg/kg) [U/L]	ALT ([2]; p.o. 30 mg/kg) [U/L]	AST ([2]; p.o. 30 mg/kg) [U/L]	BUN ([2]; p.o. 30 mg/kg) [mg/dL]	Creatinine ([2]; p.o. 30 mg/kg) [mg/dL]	Physical appearance ([2]; i.v. 3 mg/kg)	other results
CCCCC[C@H](O)CC(=O)CCc1ccc(O)c(OC)c1 [[6]-gingerol]	0.17 ± 0.11	0.1 to 0.4	< 2	92.1 ± 26.9	92.1 ± 26.9	4.8	up to 4 h	≤ 5	5 to 45	44.67 ± 7.09	20.33 ± 2.42	65.83 ± 19.66	12.83 ± 2.64	0.73 ± 0.04	32.67 ± 7.45	21.23 ± 2.44	60.50 ± 7.12	12.17 ± 2.86	0.66 ± 0.03	Normal	plasma level of converted product ([1]; after oral administration of 6S 30 mg/kg): undetectable; Physical appearance ([2]; p.o. 30 mg/kg): Normal; clearance ([3]; female, Sprague-Dawley, rat, plasma, iv, read-out: CL10 (irreversible elimination clearance of 6G) (converted)): 8.67 mL/min/kg; CL12 relative to reverse clearance CL21 [3]: approximately sevenfold greater; parent compound recovered in urine [4]: less than 1%; dose excreted [4, 10]: 0.005 ± 0.002%; dose excreted [4, 11]: 0.005 ± 0.001%; dose excreted [4, 12]: 0.001 ± 0.001%; dose excreted [4, 13]: < 0.001%; dose excreted [4, 14]: 0.623 ± 0.706%; dose excreted [4, 15]: 0.008 ± 0.005%; dose excreted [4, 16]: 0.1 ± 0.102%; dose excreted [4, 17]: 0.002 ± 0.001%; unchanged form in fecal excretion [4]: < 0.1%
COc1cc(CCC(C)=O)ccc1O [zingerone, 4-(4-hydroxy-3-methoxyphenyl)-2-butanone]	0.75 ± 0.52	0.32 to 1.6	< 2	28 ± 7.4	28 ± 7.4	15	up to 4 h	≤ 5	5 to 45	48.50 ± 14.00	28.50 ± 5.82	64.17 ± 11.05	14.17 ± 1.33	0.70 ± 0.03	35.83 ± 8.38	19.33 ± 2.50	53.83 ± 6.88	9.83 ± 1.47	0.75 ± 0.02	Normal	plasma detection of zingerone after 6S administration ([1]; after 6S administration (route not given)): not detected; AUC(0-inf) [1, 18]: 950 ± 373 ng·h/mL; AUC(0-t) [1, 18]: 944 ± 348 ng·h/mL; Tmax ([1]; female, Sprague-Dawley, rat, po, plasma analyte after zingerone p.o. 30 mg/kg): 4.8 min; Cmax [1, 18]: 1870 ± 604 ng/mL; Physical appearance ([2]; p.o. 30 mg/kg): Normal; Tolerability ([2]; single i.v. 3 mg/kg or p.o. 30 mg/kg): exhibited tolerance; parent compound recovered in urine [4]: less than 1%; dose excreted [4, 10]: 0.049 ± 0.027%; dose excreted [4, 11]: 0.002 ± 0.001%; dose excreted [4, 12]: 0.004 ± 0.003%; dose excreted [4, 13]: 0.057 ± 0.017%; dose excreted [4, 14]: 0.184 ± 0.286%; dose excreted [4, 15]: < 0.001%; dose excreted [4, 16]: 0.049 ± 0.032%; dose excreted [4, 17]: < 0.001%; unchanged form in fecal excretion [4]: < 0.1%
